{
  "source": "patent US7482340B2",
  "about": "“Pyridine derivatives useful for inhibiting sodium/calcium exchange system” (Orion Corporation, priority 2003, dated 2009)",
  "tested_on": "guinea-pig papillary muscles",
  "test": "Inhibition of ouabain-induced arrhythmias (aftercontractions) in guinea-pig papillary muscles",
  "settings": "10 μM concentration; guinea-pig papillary muscle paced at 1 Hz, 37° C.",
  "experimental": "The effects of the compounds of the invention were tested on ouabain-induced arrhythmias in guinea-pig papillary muscles.\nGuinea-pig papillary muscles were mounted into horizontal muscle cuvette. A hook connected to force transducer was attached to another end of the muscle. Muscle preparations were electrically paced at 1 Hz with field stimulation via platinum electrodes. Modified Tyrode solution was used for superfusion of muscle preparations. The composition of the Tyrode solution was the following (mM): NaCl 135, MgCl2×6H2O 1, KCl 5, CaCl2×2H2O 2, NaHCO3 15, Na2HPO4×2H2O 1, and glucose 10. The Tyrode solution was gassed with carbogen (95% O2, 5% CO2) to set pH at 7.4. Experiments were carried out at 37° C. Acquisition and analysis of twitch tensions with Action Potential and Force Measurement System (ACFO v1.0, Fision Ltd, Finland).\nOuabain by blocking of sodium-potassium ATPase increases intracellular sodium which is changed for calcium via NCX. Increased intracellular calcium is leading to overload of sarcoplasmic reticulum (SR) and spontaneous calcium release from SR inducing delayed […] (DADs). Equivalence for DADs in force signal is aftercontractions (ACs) which are seen as spontaneous twitches after the pacing controlled twitch.\nThe antiarrhythmic effects of the title compounds of Examples 13, 33, 14a and 14b were examined.",
  "data": [
    {"smiles": "NCC(=O)Nc1ccc(Oc2ccc3c(c2)CCC(c2ccccc2)O3)nc1", "note": "(stereo not shown) [Example 33, 2-Amino-N-[6-(2-phenylchroman-6-yloxy)pyridin-3-yl]acetamide]", "values": [
      {"measurement": "inhibition of the emergency of ouabain-induced second aftercontraction", "result": "inhibit completely"}
    ]}
  ]
}
